Data reported in patent US7217688B2, “Methods and compositions for derepression of IAP-inhibited caspase” (The Burnham Institute, priority 2005, dated 2007).
Square brackets hold non-standard residues; d marks the D form. Ends that are not written are not given here. * marks the point of attachment. Phe(4-Cl) = N[C@@H](Cc1ccc(Cl)cc1)C(=O)O; dPhe(4-Cl) = N[C@H](Cc1ccc(Cl)cc1)C(=O)O; dPhe(4-F) = N[C@H](Cc1ccc(F)cc1)C(=O)O; 2Nal = N[C@@H](Cc1ccc2ccccc2c1)C(=O)O; d2Nal = N[C@H](Cc1ccc2ccccc2c1)C(=O)O; Fmoc = O=C(OCC1c2ccccc2-c2ccccc21)*; 2Thi = N[C@@H](Cc1cccs1)C(=O)O; Cha = N[C@@H](CC1CCCCC1)C(=O)O

Columns and labels:
XIAP-inhibited caspase-3 = molecular target: T1, XIAP-inhibited caspase-3 (Homo sapiens, UniProt P98170); test: caspase derepression assay (XIAP-inhibited caspase-3, Ac-DEVD-AFC hydrolysis); assay type: biochemical; conditions: for Activity: Table XIV, XIAP derepression assay; for reversing XIAP-mediated suppression of caspase 3: 50 μg/ml, full length XIAP; for LC (lowest concentration with a ratio of 2 or higher in the derepression assay): tested at 0.4, 2, 10 and 50 micrograms per milliliter; for Activity (relative caspase-3 activity, ratio of Vmax with compound to Vmax of caspase-3 and XIAP controls): Table XI, different functionalities at R2
T1 construct: in the derepression assay using full length XIAP; made in house; host or cells: bacteria
Procedure: Caspase activity was assayed by release of 7-amino-4-trifluoromethyl-coumarin (AFC) from Ac-DEVD-AFC synthetic peptide using a Molecular Devices Spectromax 340 (see Zhou et al., J. Biol. Chem. 272:7797–7800 (1997)). […] The ratio of Vmax for hydrolysis of Ac-DEVD-AFC in the presence and absence of the candidate mixture was calculated and used to identify those that contain an agent that derepresses an IAP-inhibited caspase.
Screening of each mixture from the DCR390, TPI 1239 or TPI 1328 library, respectively, using the above described assay was carried out as follows. Each mixture was aliquoted in a 25 microliter volume and in duplicate to a well of a 96 well microtiter plate. […] Fluorescence of liberated AFC was immediately detected from each well for 30 minutes at 30 second intervals. The Vmax for hydrolysis of AC-DEVD-AFC from each well was measured using the softmax software package. Results of the screen for the DCR390 library are shown in Table I. Sets of mixtures having the same position fixed with different respective amino acids are arranged in 6 sections identified with the position number. […] The mixture in each section are arranged in descending order according to apparent velocity in the second column.
Briefly, recombinant proteins were produced in bacteria and purified as described, for example, in Deveraux et al., Nature 388:300–304(1997). […] Generation of fluorogenic AFC (7-amino-4-trifluoromethyl coumarin) product was measured with a spectrofluorometric plate reader in kinetic mode for 30 minutes at 37° C. using excitation and emission wavelengths of 405 nm and 510 nm, respectively. […] Control reactions lacked XIAP, and all assays were conducted in the linear range of substrate hydrolysis to avoid substrate depletion artifacts.

Jurkat leukemia cells = test: Jurkat cell death (Annexin V / propidium iodide flow cytometry); assay type: cell-based; conditions: micromolar concentrations, compared to DMSO control
Procedure: The following assay was used to test the ability of individual compounds from the TPI 1396 and TPI 1391 libraries to induce apoptosis of cultured tumor cell lines. Each of the compounds listed in Table IX was individually added to Jurkat leukemia cells (6.25×10^5 cells/mL) in RPMI containing 2.5% FBS at various concentrations for 20 hours. After incubation, cells were washed and stained with FITC-conjugated Annexin V antibody and propidium iodide (Biovision; Mountain View, Calif.). Cells were incubated for 20 minutes at room temperature in the dark and fluorescence was measured by flow cytometry (FACScan, Immunocytometry system; Becton-Dickinson; San Jose, Calif.). Cells staining positive for Annexin V were deemed non-viable.

T1 sequence (P98170 whole entry): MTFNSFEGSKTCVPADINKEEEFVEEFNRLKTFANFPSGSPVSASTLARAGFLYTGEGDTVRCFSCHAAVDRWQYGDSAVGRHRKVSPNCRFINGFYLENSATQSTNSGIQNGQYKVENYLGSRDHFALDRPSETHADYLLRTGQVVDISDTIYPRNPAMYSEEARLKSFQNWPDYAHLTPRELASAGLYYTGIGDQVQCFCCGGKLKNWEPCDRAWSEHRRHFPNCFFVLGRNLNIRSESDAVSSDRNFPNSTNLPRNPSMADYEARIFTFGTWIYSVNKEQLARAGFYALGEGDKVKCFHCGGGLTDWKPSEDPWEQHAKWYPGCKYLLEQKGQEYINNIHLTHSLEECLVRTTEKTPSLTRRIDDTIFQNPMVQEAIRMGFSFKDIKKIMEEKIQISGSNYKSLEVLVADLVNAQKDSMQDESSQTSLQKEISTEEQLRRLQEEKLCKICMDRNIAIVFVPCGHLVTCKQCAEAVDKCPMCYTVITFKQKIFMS

Row | Activity (XIAP-inhibited caspase-3) | Compound | other results
1 | 149 µM | COc1ccc(CCN2CCC[C@H]2CN(C(=O)Nc2ccccc2)[C@H](C)CNC(=O)Nc2ccccc2)cc1 [TPI 1572-16] | –
2 | 171 µM | COc1ccc(CCN2CCC[C@H]2CN(CCNC(=O)Nc2ccccc2)C(=O)Nc2ccccc2)cc1 [TPI 1572-15] | –
3 | 235 µM | CCNC(=O)NC[C@@H](CC1CCCCC1)N(C[C@@H]1CCCN1CCc1ccc(OC)cc1)C(=O)NCC [TPI 1572-20] | –
4 | 252 µM | COc1ccc(CCN2CCC[C@@H]2CN(C)[C@H](C)CNC(=O)Nc2ccccc2)cc1 [TPI 1577-1] | –
5 | 88 µM | Cc1ccc(CCN2CCC[C@@H]2CN(C)[C@@H](CNC(=O)Nc2ccccc2)CC2CCCCC2)cc1 [TPI 1577-8] | –
6 | >219 µM | COc1ccc(CCN2CCC[C@H]2CN(C(C)=O)[C@@H](CNC(C)=O)CC2CCCCC2)cc1 [TPI 1572-19] | –
7 | 89 µM | CCN1CCC[C@H]1CN(C(=O)Nc1ccccc1)[C@@H](CNC(=O)Nc1ccccc1)CC1CCCCC1 [TPI 1572-11] | –
8 | 23 µM | COc1ccc(CCN2CCC[C@@H]2CN(C)[C@@H](CNC(=O)Nc2ccc3ccccc3c2)CC2CCCCC2)cc1 [TPI 1577-9] | ability to induce apoptosis in Jurkat cells (Jurkat leukemia cells): capable of inducing apoptosis
9 | >241 µM | COc1ccc(CCN2CCC[C@@H]2CN(C)[C@@H](CNC(=O)Nc2ccccc2)CC(C)C)cc1 [TPI 1577-3] | –
10 | 132 µM | CNC[C@@H](CC1CCCCC1)N(C[C@@H]1CCCN1CCc1ccc(OC)cc1)C(=O)Nc1ccccc1 [TPI 1572-17] | –
11 | 164 µM | COc1ccc(CCN2CCC[C@H]2CN(C(=O)c2ccccc2)[C@@H](CNC(=O)c2ccccc2)CC2CCCCC2)cc1 [TPI 1572-18] | –
12 | 113 µM | CN(C[C@H]1CCCN1CCc1ccccc1)[C@@H](CNC(=O)Nc1ccccc1)CC1CCCCC1 [TPI 1577-6] | –
13 | 69 µM | COc1ccc(CCN2CCC[C@H]2CN(C(=O)Nc2ccc(C)cc2)[C@@H](CNC(=O)Nc2ccc(C)cc2)CC2CCCCC2)cc1 [TPI 1572-21] | –
14 | 79 µM | COc1ccc(CCN2CCC[C@H]2CN(C(=O)Nc2ccc(F)cc2)[C@@H](CNC(=O)Nc2ccc(F)cc2)CC2CCCCC2)cc1 [TPI 1572-22] | –
15 | 103 µM | COc1ccc(CCN2CCC[C@H]2CN(C)[C@@H](CNC(=O)Nc2ccccc2)CC2CCCCC2)cc1 [TPI 1572-14] | –
16 | 71 µM | CN(C[C@H]1CCCN1CCc1ccc(F)cc1)[C@@H](CNC(=O)Nc1ccccc1)CC1CCCCC1 [TPI 1577-7] | –
17 | 157 µM | COc1ccc(CCN2CCC[C@@H]2CN(C)CCNC(=O)Nc2ccccc2)cc1 [TPI 1577-2] | –

Second part, the compound before the results:

Row | Compound | Activity (XIAP-inhibited caspase-3) | other results
18 | (L-Ala)-(D-Trp)-(L-Trp)-(L-ThiAla) (A[dW]W[2Thi]) [TPI 1332-47] | – | reversing XIAP-mediated suppression of caspase 3 (XIAP-inhibited caspase-3): Active
19 | COc1ccc(CCN2C[C@@H](O)C[C@@H]2CN(C(=O)Nc2ccccc2)[C@@H](CNC(=O)Nc2ccccc2)CC2CCCCC2)cc1 [TPI 1567-23] | 35 µM | –
20 | (L-ThiAla)-(Lys-εFmoc)-(D-Nal)-(Lys-εFmoc) ([2Thi]K(Fmoc)[d2Nal]K(Fmoc)) [TPI 792-19] | – | LC (lowest concentration with a ratio of 2 or higher in the derepression assay) (XIAP-inhibited caspase-3): 2 µg/mL
21 | (D-Nal)-(L-Nal)-(L-pClPhe)-(Lys-εFmoc) ([d2Nal][2Nal][Phe(4-Cl)]K(Fmoc)) [TPI 792-15] | – | LC (lowest concentration with a ratio of 2 or higher in the derepression assay) (XIAP-inhibited caspase-3): 2 µg/mL
22 | O=C(NC[C@@H](CC1CCCCC1)N(C[C@@H]1CCCN1)C(=O)Nc1ccccc1)Nc1ccccc1 [TPI 1572-10] | >210 µM | –
23 | (L-Cha)-(D-Na1)-(L-Trp)-(L-ThiAla) ([Cha][d2Nal]W[2Thi]) [TPI 1332-41] | – | reversing XIAP-mediated suppression of caspase 3 (XIAP-inhibited caspase-3): Active
24 | (L-ThiAla)-(Lys-εFmoc)-(L-pClPhe)-(pF-D-F) ([2Thi]K(Fmoc)[Phe(4-Cl)][dPhe(4-F)]) [TPI 792-22] | – | LC (lowest concentration with a ratio of 2 or higher in the derepression assay) (XIAP-inhibited caspase-3): 2 µg/mL
25 | COc1ccc(CCN(CCCC[C@@H](CN(C(=O)Nc2ccccc2)[C@@H](CNC(=O)Nc2ccccc2)CC2CCCCC2)N(C)C(=O)Nc2ccccc2)C(=O)Nc2ccccc2)cc1 [TPI 1396-25] | – | Activity (relative caspase-3 activity, ratio of Vmax with compound to Vmax of caspase-3 and XIAP controls) (XIAP-inhibited caspase-3): 1.6
26 | CCN1CCC[C@@H]1CN(C)[C@@H](CNC(=O)Nc1ccccc1)CC1CCCCC1 [TPI 1567-5] | 209 µM | –
27 | COc1ccc(CCN2CCC[C@@H]2CN(C)[C@@H](CNC(=O)Nc2ccc(F)cc2)CC2CCCCC2)cc1 [TPI 1567-12] | 124 µM | ability to induce apoptosis in Jurkat cells (Jurkat leukemia cells): capable of inducing apoptosis
28 | CN(C[C@@H]1CCCN1CCC12CC3CC(CC(C3)C1)C2)[C@H](CCCCNC(=O)Nc1ccccc1)CNC(=O)Nc1ccccc1 [TPI 1567-18] | 61 µM | –
29 | (D-Nal)-(Lys-εFmoc)-(L-pClPhe)-(Lys-εFmoc) ([d2Nal]K(Fmoc)[Phe(4-Cl)]K(Fmoc)) [TPI 792-3] | – | LC (lowest concentration with a ratio of 2 or higher in the derepression assay) (XIAP-inhibited caspase-3): 2 µg/mL
30 | COc1ccc(CCN2C[C@@H](O)C[C@@H]2CN(C)[C@@H](CNC(=O)Nc2ccccc2)CC2CCCCC2)cc1 [TPI 1567-24] | 122 µM | –
31 | (L-Ala)-(L-Trp)-(L-Trp)-(L-ThiAla) (AWW[2Thi]) [TPI 1332-1] | – | reversing XIAP-mediated suppression of caspase 3 (XIAP-inhibited caspase-3): Active
32 | (D-Nal)-(D-pClPhe)-(L-pC1Phe)-(Lys-εFmoc) ([d2Nal][dPhe(4-Cl)][Phe(4-Cl)]K(Fmoc)) [TPI 792-9] | – | LC (lowest concentration with a ratio of 2 or higher in the derepression assay) (XIAP-inhibited caspase-3): 10 µg/mL
33 | COc1ccc(CCN2CCC[C@@H]2CN(C)[C@@H](CNC(=O)Nc2ccc(C)cc2)CC2CCCCC2)cc1 [TPI 1567-11] | 75 µM | ability to induce apoptosis in Jurkat cells (Jurkat leukemia cells): capable of inducing apoptosis
34 | (D-Nal)-(L-Nal)-(D-Lys-εFmoc)-(Lys-εFmoc) ([d2Nal][2Nal][dK](Fmoc)K(Fmoc)) [TPI 792-17] | – | LC (lowest concentration with a ratio of 2 or higher in the derepression assay) (XIAP-inhibited caspase-3): 2 µg/mL
35 | COc1ccc(CCN(C(=O)Nc2ccccc2)[C@H](Cc2ccccc2)CN(C(=O)Nc2ccccc2)[C@@H](CNC(=O)Nc2ccccc2)CC2CCCCC2)cc1 [TPI 1396-31] | – | Activity (relative caspase-3 activity, ratio of Vmax with compound to Vmax of caspase-3 and XIAP controls) (XIAP-inhibited caspase-3): 1.3
36 | COc1ccc(CCN2CCC[C@@H]2CN(C)[C@@H](CNC(=O)Nc2ccc(I)cc2)CC2CCCCC2)cc1 [TPI 1567-13] | 58 µM | ability to induce apoptosis in Jurkat cells (Jurkat leukemia cells): capable of inducing apoptosis
37 | COc1ccc(CCN2CCC[C@@H]2CN(C)[C@@H](CNC(=O)Nc2cc(Br)cc(Br)c2)CC2CCCCC2)cc1 [TPI 1567-14] | 81 µM | ability to induce apoptosis in Jurkat cells (Jurkat leukemia cells): capable of inducing apoptosis
38 | (L-ThiAla)-(D-pClPhe)-(L-pClPhe)-(Lys-εFmoc) ([2Thi][dPhe(4-Cl)][Phe(4-Cl)]K(Fmoc)) [TPI 792-27] | – | LC (lowest concentration with a ratio of 2 or higher in the derepression assay) (XIAP-inhibited caspase-3): 2 µg/mL
39 | COc1ccc(CCN2CCC[C@H]2CNC(=O)Nc2ccccc2)cc1 [TPI 1572-8] | >283 µM | –
40 | COc1ccc(CCN2CCC[C@H]2CN(C(=O)Nc2ccc([N+](=O)[O-])cc2)[C@@H](CNC(=O)Nc2ccc([N+](=O)[O-])cc2)CC2CCCCC2)cc1 [TPI 1572-23] | 94 µM | –
